Square brackets hold non-standard residues; d marks the D form. Peptide text beside a SMILES is read from it. * marks the point of attachment. dPhe(4-NHCONH2) = NC(=O)Nc1ccc(C[C@@H](N)C(=O)O)cc1; Dihydroorotyl(S) = O=C1C[C@@H](C(=O)*)NC(=O)N1; dPhe(4-Cl) = N[C@H](Cc1ccc(Cl)cc1)C(=O)O; Phe(4-NH2) = Nc1ccc(C[C@H](N)C(=O)O)cc1; d2Nal = N[C@H](Cc1ccc2ccccc2c1)C(=O)O; Lys(iPr) = CC(C)NCCCC[C@H](N)C(=O)O; d3Pal = N[C@H](Cc1cccnc1)C(=O)O
Columns and labels:
[1] = human, in vivo
Text: Safety data from all clinical trials with degarelix in the treatment of prostate cancer, including patients receiving other dosing regimens, were pooled.

[2] = in vivo
Experimental: In this example, a study was conducted to investigate the risk of cardiovascular events when ADT is utilized by a GnRH antagonist versus agonist in patients with or without a history of cardiovascular events.
Specifically, this study utilized available data yielding a safety database of 2328 PCa (prostate cancer) patients who participated in randomized clinical trials and received treatment with either degarelix or a GnRH agonist for up to 12 months (13 treatment months).
The study is based on data from two completed Phase 3 and 4 Phase 3b trials, all of which used an active comparator in form of a GnRH agonist. In each study, the primary inclusion criteria were male subjects ≥8 years of age with histologically confirmed adenocarcinoma of the prostate in whom ADT was indicated and a life expectancy of minimum 12 months could be anticipated. All subjects had serum testosterone levels that were either within the age-specified normal range or above the lower limit of the normal range of the central laboratory and ECOG score ≤2. Exclusion criterion ensured that none of the subjects had received long-term ADT (>6 months) before study entry.
Baseline evaluation included thorough collection of the main demographic characteristics (age, weight, height), lifestyle factors (smoking and drinking habits), and major CV risk factors (treated type 2 diabetes, treated hyperlipidemia, treated hypertension, and systolic and diastolic blood pressure). Patients also underwent physical examination and ECG assessment for potential cardiac morbidities. Medical history of CV events was captured by the following Standardized MedDRA Queries (myocardial infarction, ischemic heart diseases, ischemic stroke, hemorrhagic stroke, other arterial thrombotic/embolic events).
Cardiovascular events of interest were collected prospectively, typically at monthly visits, as adverse events or serious adverse events with date of occurrence. These events were coded using standard MedDRA terms and grouped into one of the same categories as those used to collect medical history.
The CV event rates in agonist and antagonist-treated patients were analyzed by 1-Kaplan-Meier plots of time to first-reported CV events and compared with log-rank test. The analysis was performed separately for strata of patients with or without history of CV events. To identify independent predictors of CV events we applied multivariate Cox proportional hazards models.
To further explore the apparent independent role of treatment choice and identify independent modifiable risk factors, this study established Cox proportional hazard models including CV events occurring during treatment as dependent variable and age, history of CV event, drinking (i.e., high alcohol consumption or abstinence) and smoking habits, hypertension, serum testosterone level and PCa disease stage as independent variables.

testosterone [3] = experiment: CS21 phase 3 study, degarelix vs leuprolide 7.5 mg: serum testosterone suppression; format: in vivo, human; settings: for Probability of sufficient testosterone response / Probability of testosterone ≤0.5 ng/mL from Day 28 through Day 364 / Probability of testosterone ≤0.5 ng/mL from Day 56 through Day 364: age <65; for patients with testosterone surge (increase ≥15% from baseline): first two weeks, pooled degarelix
Experimental: In this example, an open-label, multi-center, randomized, parallel-group study was conducted to investigate the efficacy and safety of degarelix one month dosing regimens. […] These degarelix dosing regimens were compared to LUPRON DEPOT™ at 7.5 mg in patients with prostate cancer requiring androgen ablation therapy. […] Finally, the study evaluated the pharmacokinetics of the degarelix dosing regimens investigated. […] The primary efficacy endpoint was analyzed for both the ITT and PP analysis sets, with the ITT analysis set considered primary. The primary efficacy endpoint was analyzed using the Kaplan Meier method. For each of the three treatment groups, testosterone response rates with 95% confidence interval (CI) were calculated by log-log transformation of survivor function. […] All secondary efficacy endpoints were analyzed for both the ITT and PP analysis sets, unless otherwise stated. […] The percentage change in PSA from baseline to day 28 endpoint was analyzed by a Wilcoxon test. […] The secondary endpoints; probability of testosterone ≤0.5 ng/mL from Day 56 through Day 364, time to PSA failure and probability of sufficient testosterone response from Day 28 through Day 364 were analyzed by the Kaplan-Meier method.

clinical = settings: human, in vivo, sc
Experimental: Median degarelix trough concentrations in the maintenance phase with 80 mg at a concentration of 20 mg/mL was 10.9 ng/mL.
The long half-life after subcutaneous administration is a consequence of a very slow release of degarelix from the depot formed at the injection site(s). The pharmacokinetic behavior of the drug is strongly influenced by its concentration in the injection formulation.

testosterone [4] = experiment: Example 2: serum testosterone (LC-MS/MS); format: in vivo, human; settings: from Day 28 (Month 1)
Experimental: Serum testosterone was typically measured at baseline and then monthly in all cases. Serum testosterone was measured at a central laboratory using a validated liquid chromatography system with a tandem mass spectrometry assay with a lower limit of quantitation of 3 ng/dl.

[5] = in vivo; remark: listed apart in the source
Experimental: Laboratory parameters (Table 4) were recorded at screening and during the study.

[6] = system: follicle stimulating hormone (FSH); experiment: CS21: serum FSH over time; format: in vivo, human
Experimental: Finally, the study evaluated the pharmacokinetics of the degarelix dosing regimens investigated.
(§1) The secondary efficacy endpoints were: the proportion of patients with testosterone surge during the first 2 weeks of treatment; the proportion of patients with testosterone level ≤0.5 ng/mL at day 3; the percentage change in PSA from baseline to day 28; the probability of testosterone ≤0.5 ng/mL from day 56 through day 364; the levels of serum testosterone, LH, FSH and PSA over time through the study; the time to PSA failure, defined as two consecutive increases of 50%, and at least 5 ng/mL as compared to nadir; degarelix concentration over the first month and trough levels at day 308 and 336; the frequency and size of testosterone increases at day 255 and/or 259 compared to the testosterone level at day 252; the quality of life on days 0, 28, 84, 168 and end of study visit; the frequency and intensity of hot flushes experienced (scored daily from study start until end of study visit. In addition, two further secondary endpoints were added: the probability of sufficient testosterone response from day 28 through day 364 (a patient was considered to have insufficient testosterone response if they had one testosterone value >1.0 ng/mL or two consecutive testosterone values >0.5 ng/mL at day 28 onwards); and the percentage change in PSA from baseline to Day 14.

human CYP450 system = format: in vitro ADME
[7] = in vivo; remark: listed apart in the source
Experimental: Body weight was measured at screening and the end of study visit.

[8] = design: species or system human; settings: in vivo
Text: Plasma protein binding is estimated to be approximately 90%.

[9] = system: prostate-specific antigen (PSA); experiment: CS21: PSA response and PSA failure; format: in vivo, human; settings: for Day 14 percentage change in PSA, median / Day 28 percentage change in PSA, median: Day 0 dose degarelix 240@40; for median percentage change (reduction) in PSA from baseline: leuprolide 7.5 mg with anti-androgen flare protection; for median percentage reduction in PSA from baseline: leuprolide 7.5 mg without anti-androgen
Experimental: as §1
All secondary efficacy endpoints were analyzed for both the ITT and PP analysis sets, unless otherwise stated. The proportion of patients with testosterone surge during the first 2 weeks of treatment was analyzed using Fisher's exact test. Fisher's exact test was also used to analyze the proportion of patients with testosterone level ≤0.5 ng/mL at day 3. The percentage change in PSA from baseline to day 28 endpoint was analyzed by a Wilcoxon test.
The secondary endpoints; probability of testosterone ≤0.5 ng/mL from Day 56 through Day 364, time to PSA failure and probability of sufficient testosterone response from Day 28 through Day 364 were analyzed by the Kaplan-Meier method.

[10] = degarelix 240@40/80@20, LUPRON DEPOT 7.5 mg
[11] = degarelix 240/80 mg, leuprolide 7.5 mg
[12] = age <65, degarelix 240@40/80@20, LUPRON DEPOT 7.5 mg
[13] = age >=75, degarelix 240@40/80@20, LUPRON DEPOT 7.5 mg

CC(=O)N[C@H](Cc1ccc2ccccc2c1)C(=O)N[C@H](Cc1ccc(Cl)cc1)C(=O)N[C@H](Cc1cccnc1)C(=O)N[C@@H](CO)C(=O)N[C@@H](Cc1ccc(NC(=O)[C@@H]2CC(=O)NC(=O)N2)cc1)C(=O)N[C@H](Cc1ccc(NC(N)=O)cc1)C(=O)N[C@@H](CC(C)C)C(=O)N[C@@H](CCCCNC(C)C)C(=O)N1CCC[C@H]1C(=O)N[C@H](C)C(N)=O [Degarelix, D-Alaninamide, N-acetyl-3-(2-naphthalenyl)-D-alanyl-4-chloro-D-phenylalanyl-3-(3-pyridinyl)-D-alanyl-L-seryl-4-[[[(4S)-hexahydro-2,6-dioxo-4-pyrimidinyl]carbonyl]amino]-L phenylalanyl-4-[(aminocarbonyl)amino]-D-phenylalanyl-L leucyl-N6-(1-methylethyl)-L-lysyl-L-prolyl] (Ac-[d2Nal][dPhe(4-Cl)][d3Pal]S[Phe(4-NH2)](Dihydroorotyl(S))[dPhe(4-NHCONH2)]L[Lys(iPr)]P[dA]-NH2)
drug-related erectile dysfunction, gynaecomastia, hyperhidrosis, testicular atrophy, diarrhea: % of patients [1]: ≥ 1%
Any CV adverse event, % (adverse events E) [2]: 6.0%
Any CV adverse event, % of patients with adverse events [2]: 2.9%
Any CV adverse event, E = Number of adverse events [2]: 90
Any CV adverse event, N = Number of patients with adverse events [2]: 44
HR for CV event, degarelix versus the agonist [2]: 0.62
HR for CV event, degarelix vs agonist [2]: 0.49
Hemorrhagic stroke, % (adverse events E) [2]: 0.2%
Hemorrhagic stroke, % of patients with adverse events [2]: 0.2%
Hemorrhagic stroke, E = Number of adverse events [2]: 3
Hemorrhagic stroke, N = Number of patients with adverse events [2]: 3
Ischemic heart disease, % (adverse events E) [2]: 1.8%
Ischemic heart disease, % of patients with adverse events [2]: 1.7%
Ischemic heart disease, E = Number of adverse events [2]: 27
Ischemic heart disease, N = Number of patients with adverse events [2]: 25
Ischemic stroke, % (adverse events E) [2]: 1.1%
Ischemic stroke, % of patients with adverse events [2]: 0.9%
Ischemic stroke, E = Number of adverse events [2]: 16
Ischemic stroke, N = Number of patients with adverse events [2]: 14
Myocardial infarction, % (adverse events E) [2]: 1.0%
Myocardial infarction, % of patients with adverse events [2]: 0.8%
Myocardial infarction, E = Number of adverse events [2]: 15
Myocardial infarction, N = Number of patients with adverse events [2]: 13
Other embolic or thrombotic events, arterial, % (adverse events E) [2]: 1.9%
Other embolic or thrombotic events, arterial, % of patients with adverse events [2]: 1.5%
Other embolic or thrombotic events, arterial, E = Number of adverse events [2]: 29
Other embolic or thrombotic events, arterial, N = Number of patients with adverse events [2]: 23
risk of a CV event lower if taking degarelix versus the agonist [2]: 38%
median testosterone level (testosterone [3]; after one year of treatment, 80 mg monthly): 0.087 ng/mL
Probability of sufficient testosterone response (testosterone [3]; degarelix 240/160@40): 96.7%
Probability of testosterone ≤0.5 ng/mL from Day 28 through Day 364 (testosterone [3]; degarelix 240/160@40): 96.7%
Probability of testosterone ≤0.5 ng/mL from Day 56 through Day 364 (testosterone [3]; degarelix 240/160@40): 96.7%
Probability of sufficient testosterone response (testosterone [3]; [10]): 97.4%
Probability of testosterone ≤0.5 ng/mL from Day 28 through Day 364 (testosterone [3]; [10]): 97.4%
Probability of testosterone ≤0.5 ng/mL from Day 56 through Day 364 (testosterone [3]; [10]): 97.4%
patients with testosterone suppression on day 3 (testosterone [3]): 96%
Kaplan-Meier probability of testosterone ≤0.5 ng/mL from day 28 to day 364 (testosterone [3]; [11]): 97.2%
observed cases analysis: proportion of patients with testosterone ≤0.5 ng/mL from day 28 to day 364 (testosterone [3]; [11]): 97.0%
Kaplan-Meier probability of testosterone ≤0.5 ng/mL from day 28 to day 364 (testosterone [3]; degarelix 240/160 mg): 98.3%
observed cases analysis: proportion of patients with testosterone ≤0.5 ng/mL from day 28 to day 364 (testosterone [3]; degarelix 240/160 mg): 98.2%
patients with testosterone surge (increase ≥15% from baseline) (testosterone [3]; leuprolide 7.5 mg): 0.2%
patients with sustained testosterone suppression (testosterone [3]; maintenance monthly 80 mg, at least one year): 97%
metabolites in plasma samples (clinical): No significant metabolites were detected
Median degarelix trough concentration (clinical; male, 80 mg): 10.9 ng/mL
AUC (clinical; male, 240 mg): 29800 ng·h/mL
median testosterone level (testosterone [4]): < 0.5 ng/mL
changes in liver function [5]: no evidence of any clinically significant changes in liver function
decrease in median FSH from baseline ([6]; by day 7): > 80%
median FSH level ([6]; by day 7): ≤ 1.5 IU/L
substrate for the human CYP450 system (human CYP450 system): not a substrate for the human CYP450 system
markedly abnormal increases in weight of ≥7% from baseline, % of patients [7]: 10%
distribution volume [8]: approximately 1 L/kg
fraction excreted via the hepato-biliary system [8]: approximately 80%
fraction of dose renally excreted [8]: approximately 20%
Day 14 percentage change in PSA, median ([9]; PCA = Localized): −50.6%
Day 28 percentage change in PSA, median ([9]; PCA = Localized): −75.0%
Day 14 percentage change in PSA, median ([9]; PCA = Metastatic): −77.9%
Day 28 percentage change in PSA, median ([9]; PCA = Metastatic): −89.9%
Day 14 percentage change in PSA, median ([9]; PCA Locally advanced): −66.6%
Day 28 percentage change in PSA, median ([9]; PCA Locally advanced): −84.1%
Probability of no PSA failure ([9]; age <65, degarelix 240/160@40): 71.6%
Probability of no PSA failure [9, 12]: 85.2%
Probability of no PSA failure ([9]; age >=75, degarelix 240/160@40): 94.5%
Probability of no PSA failure [9, 13]: 96.6%
probability of a PSA observation from the pooled degarelix groups being less than one from the leuprolide 7.5 mg group ([9]; day 14): 0.82
probability of a PSA observation from the pooled degarelix groups being less than one from the leuprolide 7.5 mg group ([9]; day 28): 0.70
probability of completing the study without experiencing PSA failure [9, 11]: 91.2%
probability of completing the study without experiencing PSA failure ([9]; degarelix 240/160 mg): ~85.8%

CCNC(=O)[C@@H]1CCCN1C(=O)[C@H](CCCNC(=N)N)NC(=O)[C@H](CC(C)C)NC(=O)[C@@H](CC(C)C)NC(=O)[C@H](Cc1ccc(O)cc1)NC(=O)[C@H](CO)NC(=O)[C@H](Cc1c[nH]c2ccccc12)NC(=O)[C@H](Cc1c[nH]cn1)NC(=O)[C@@H]1CCC(=O)N1 [Leuprolide, leuprolide, reference compound]
Probability of sufficient testosterone response (testosterone [3]; [10]): 92.1%
Probability of testosterone ≤0.5 ng/mL from Day 28 through Day 364 (testosterone [3]; [10]): 89.5%
Probability of testosterone ≤0.5 ng/mL from Day 56 through Day 364 (testosterone [3]; [10]): 89.5%
patients with testosterone suppression on day 3 (testosterone [3]): no patients
Kaplan-Meier probability of testosterone ≤0.5 ng/mL from day 28 to day 364 (testosterone [3]; [11]): 96.4%
observed cases analysis: proportion of patients with testosterone ≤0.5 ng/mL from day 28 to day 364 (testosterone [3]; [11]): 96.0%
patients with testosterone surge (increase ≥15% from baseline) (testosterone [3]; leuprolide 7.5 mg): 80.1%
median FSH plateau ([6]; around day 56 until day 364): approximately 4.40 IU/L
median FSH level ([6]; by day 14): 2.0 IU/L
increase in FSH from baseline ([6]; day 1): 146%
median FSH level (peak) ([6]; day 1): 22.5 IU/L
markedly abnormal increases in weight of ≥7% from baseline, % of patients [7]: 13%
Day 14 percentage change in PSA, median ([9]; PCA = Localized): −13.2%
Day 28 percentage change in PSA, median ([9]; PCA = Localized): −55.7%
Day 14 percentage change in PSA, median ([9]; PCA = Metastatic): −25.3%
Day 28 percentage change in PSA, median ([9]; PCA = Metastatic): −79.7%
Day 14 percentage change in PSA, median ([9]; PCA Locally advanced): −21.3%
Day 28 percentage change in PSA, median ([9]; PCA Locally advanced): −73.2%
Probability of no PSA failure [9, 12]: 68.2%
Probability of no PSA failure [9, 13]: 86.8%
median percentage change (reduction) in PSA from baseline ([9]; day 14): 61.7%
median percentage reduction in PSA from baseline ([9]; day 14): 15.3%
median percentage change (reduction) in PSA from baseline ([9]; day 28): 89.1%
median percentage reduction in PSA from baseline ([9]; day 28): 61.7%
probability of completing the study without experiencing PSA failure [9, 11]: ~85.8%

Reference: patent US11766468B2, “Method of treating prostate cancer with GnRH antagonist” (priority 2012, dated 2023)
